{
  "source": "ChEMBL document CHEMBL4814032",
  "about": "“Discovery of an indole-substituted furanone with tubulin polymerization inhibition activity” (Bioorg Med Chem Lett, 2021)",
  "key": {"[1]": {"molecular_target": "T1, Protein kinase C epsilon type (Homo sapiens) (UniProt Q02156)", "T1 sequence (whole entry)": "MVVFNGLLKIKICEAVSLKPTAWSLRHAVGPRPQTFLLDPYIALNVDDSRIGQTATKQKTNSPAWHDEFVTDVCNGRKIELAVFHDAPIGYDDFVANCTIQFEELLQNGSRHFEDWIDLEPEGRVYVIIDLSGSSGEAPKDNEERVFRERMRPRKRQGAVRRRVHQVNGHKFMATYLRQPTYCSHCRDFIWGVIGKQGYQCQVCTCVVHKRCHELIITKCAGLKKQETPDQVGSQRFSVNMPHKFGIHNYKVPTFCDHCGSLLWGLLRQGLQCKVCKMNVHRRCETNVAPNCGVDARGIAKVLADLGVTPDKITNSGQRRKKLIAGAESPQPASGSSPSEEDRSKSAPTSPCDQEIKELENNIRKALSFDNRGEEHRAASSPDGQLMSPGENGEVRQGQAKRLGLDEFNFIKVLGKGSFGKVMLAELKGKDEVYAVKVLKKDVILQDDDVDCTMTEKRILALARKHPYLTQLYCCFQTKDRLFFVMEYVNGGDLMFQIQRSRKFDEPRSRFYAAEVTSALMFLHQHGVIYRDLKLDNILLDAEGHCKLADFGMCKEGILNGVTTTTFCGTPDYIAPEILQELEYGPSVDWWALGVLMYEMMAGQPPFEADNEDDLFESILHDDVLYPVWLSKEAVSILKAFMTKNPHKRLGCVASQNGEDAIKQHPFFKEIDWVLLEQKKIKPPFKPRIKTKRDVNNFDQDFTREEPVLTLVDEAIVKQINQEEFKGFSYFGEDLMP", "assay": "Binding affinity to PKCepsilon (unknown origin)"}, "[2]": {"molecular_target": "Vascular endothelial growth factor receptor 3 (Homo sapiens) (UniProt P35916)", "sequence (P35916 whole entry)": "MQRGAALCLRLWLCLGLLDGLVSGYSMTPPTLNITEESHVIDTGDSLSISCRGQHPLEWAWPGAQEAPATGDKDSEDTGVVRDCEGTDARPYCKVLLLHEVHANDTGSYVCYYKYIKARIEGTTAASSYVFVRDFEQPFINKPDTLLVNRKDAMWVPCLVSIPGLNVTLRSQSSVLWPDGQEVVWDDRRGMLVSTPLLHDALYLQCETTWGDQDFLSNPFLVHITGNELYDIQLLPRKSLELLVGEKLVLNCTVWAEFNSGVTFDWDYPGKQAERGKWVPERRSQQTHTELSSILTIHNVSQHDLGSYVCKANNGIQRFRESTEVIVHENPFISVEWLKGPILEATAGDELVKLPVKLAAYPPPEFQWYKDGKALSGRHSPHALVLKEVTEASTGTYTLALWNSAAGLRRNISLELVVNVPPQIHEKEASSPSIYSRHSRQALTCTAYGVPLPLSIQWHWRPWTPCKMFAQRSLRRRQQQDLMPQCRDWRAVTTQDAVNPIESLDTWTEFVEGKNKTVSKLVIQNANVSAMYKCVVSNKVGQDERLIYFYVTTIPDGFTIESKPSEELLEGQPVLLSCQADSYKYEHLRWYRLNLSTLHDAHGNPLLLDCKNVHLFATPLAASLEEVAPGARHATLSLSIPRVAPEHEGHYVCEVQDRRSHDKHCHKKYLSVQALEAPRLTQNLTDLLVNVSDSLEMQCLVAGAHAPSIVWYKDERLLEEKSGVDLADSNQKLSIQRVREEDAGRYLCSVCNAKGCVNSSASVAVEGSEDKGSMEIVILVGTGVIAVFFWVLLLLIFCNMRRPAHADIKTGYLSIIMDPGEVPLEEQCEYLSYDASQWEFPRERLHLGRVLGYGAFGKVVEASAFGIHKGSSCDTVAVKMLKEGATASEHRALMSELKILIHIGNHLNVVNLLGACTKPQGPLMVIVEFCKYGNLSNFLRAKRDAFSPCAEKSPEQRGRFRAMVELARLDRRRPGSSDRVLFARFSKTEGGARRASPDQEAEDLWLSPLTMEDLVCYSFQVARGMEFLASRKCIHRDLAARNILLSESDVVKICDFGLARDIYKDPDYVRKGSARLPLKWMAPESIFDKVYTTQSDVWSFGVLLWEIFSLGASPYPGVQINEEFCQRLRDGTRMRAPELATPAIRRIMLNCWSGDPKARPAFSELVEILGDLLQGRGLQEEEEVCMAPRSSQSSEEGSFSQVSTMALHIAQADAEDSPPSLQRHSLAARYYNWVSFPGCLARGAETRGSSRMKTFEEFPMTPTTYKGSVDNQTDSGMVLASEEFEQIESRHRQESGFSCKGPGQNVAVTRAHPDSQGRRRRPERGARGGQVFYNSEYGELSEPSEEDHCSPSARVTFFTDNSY", "assay": "Binding affinity to VEGFR3 (unknown origin)"}, "U-937": {"tested_on": "U-937", "assay": "Cytotoxicity against human U-937 cells by MTT assay", "type": "functional, cell-based"}, "Tubulin (Homo sapiens)": {"molecular_target": "Tubulin (Homo sapiens) (UniProt P68371+Q9H4B7+P0DPH7+P68366+Q13509+Q71U36+P04350+Q3ZCM7+P07437+P68363+Q9BQE3+Q6PEY2+Q13885+Q9BVA1+Q9BUF5)", "assay": "Inhibition of tubulin polymerization (unknown origin) at 10 uM", "type": "protein-complex assay"}},
  "note": "Calls of active or inactive are those of the source. The rule behind the calls is not given here.",
  "data": [
    {"smiles": "COc1ccc(C2=C(c3cn(C)c4ccccc34)C(=O)NC2)cc1OC", "values": [
      {"measurement": "Activity", "setting": "[1]", "result": 47, "unit": "%"},
      {"measurement": "Activity", "setting": "[2]", "result": 50, "unit": "%"}
    ]},
    {"smiles": "CCCN1CC(c2ccc(OC)c(OC)c2)=C(c2cn(C(=O)OCC)c3ccccc23)C1=O", "values": [
      {"measurement": "IC50", "setting": "U-937", "result": 5, "unit": "µM"}
    ]},
    {"smiles": "CCCN1CC(c2ccc(OC)c(OC)c2)=C(c2cn(C)c3ccccc23)C1=O", "values": [
      {"measurement": "IC50", "setting": "U-937", "result": 5, "unit": "µM"}
    ]},
    {"smiles": "CCCN1CC(c2ccc(OC)c(OC)c2)=C(c2c[nH]c3ccccc23)C1=O", "values": [
      {"measurement": "IC50", "setting": "U-937", "result": 35, "unit": "µM"}
    ]},
    {"smiles": "CCOC(=O)n1cc(C2=C(c3ccc(OC)c(OC)c3)COC2=O)c2ccccc21", "values": [
      {"measurement": "inhibition", "setting": "Tubulin (Homo sapiens)", "result": "Active"},
      {"measurement": "IC50", "setting": "U-937", "result": 0.3, "unit": "µM"}
    ]},
    {"smiles": "COc1ccc(C2=C(c3cn(C)c4ccccc34)C(=O)OC2)cc1OC", "values": [
      {"measurement": "IC50", "setting": "U-937", "result": 1, "unit": "µM"}
    ]},
    {"smiles": "COc1ccc(C2=C(c3c[nH]c4ccccc34)C(=O)OC2)cc1OC", "values": [
      {"measurement": "IC50", "setting": "U-937", "result": 9, "unit": "µM"}
    ]}
  ]
}
